From patent US8816076B2, “Aryl urea derivatives as N-formyl peptide receptor like-1 (FPRL-1) receptor modulators” (Allergan, Inc., priority 2011, dated 2014)
pEC50: −log10 of the molar value. Where “and” joins values, the source holds several entries; their conditions need not be identical. Equal entries are not always repeated.

Target: T1, FPRL-1 (Homo sapiens, UniProt P25090)
T1 construct: expressed in transfected cells
T1 sequence (P25090 1-351): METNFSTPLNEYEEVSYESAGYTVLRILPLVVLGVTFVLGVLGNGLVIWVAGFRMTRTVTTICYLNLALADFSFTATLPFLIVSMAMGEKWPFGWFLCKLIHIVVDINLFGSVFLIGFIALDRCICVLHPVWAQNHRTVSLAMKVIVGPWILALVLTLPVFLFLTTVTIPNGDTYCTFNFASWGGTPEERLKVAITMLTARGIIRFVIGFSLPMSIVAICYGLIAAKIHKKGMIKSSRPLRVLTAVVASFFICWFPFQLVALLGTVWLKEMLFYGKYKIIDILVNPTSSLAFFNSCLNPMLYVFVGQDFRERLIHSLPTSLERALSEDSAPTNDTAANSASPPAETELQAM
Assay: Compound-induced calcium activity on FLIPR Tetra in CHO-Ga16 cells stably expressing FPRL1
Type: cell-based
Settings: for pEC50: compounds tested at 0.61 to 10,000 nM; for FPRL-1 Ga16-CHO (Rel. eff.): relative efficacy
Protocol: CHO-Ga16 cells stably expressing FPRL1 were cultured in (F12, 10% FBS, 1% PSA, 400 μg/ml geneticin and 50 μg/ml hygromycin) and HEK-Gqi5 cells stable expressing FPR1 were cultured in (DMEM high glucose, 10% FBS, 1% PSA, 400 μg/ml geneticin and 50 μg/ml hygromycin). In general, the day before the experiment, 18,000 cells/well were placed in a 384-well clear bottom poly-d-lysine coated plate. The following day the screening compound-induced calcium activity was assayed on the FLIPR^Tetra. The drug plates were prepared in 384-well microplates using the EP3 and the MultiPROBE robotic liquid handling systems. Compounds were tested at concentrations ranging from 0.61 to 10,000 nM. Results are expressed as EC50 (nM) and efficacy values.

| Structure (SMILES) | pEC50 | FPRL-1 Ga16-CHO (Rel. eff.) |
| --- | --- | --- |
| O=C(Nc1ccc(Br)cc1F)N[C@@H](Cc1ccccc1)C(=O)O [Compound 1, (2S)-2-({[(4-Bromo-2-fluorophenyl)amino]carbonyl}amino)-3-phenylpropanoic acid] | 7.29 | (0.88) |
| Cc1cc(Br)ccc1NC(=O)N[C@@H](Cc1ccccc1)C(=O)O [Compound 2, (2S)-2-({[(4-Bromo-2-methylphenyl)amino]carbonyl}amino)-3-phenylpropanoic acid] | 5.81 | (1.0) |
| O=C(Nc1c(F)cc(Br)cc1F)N[C@@H](Cc1ccccc1)C(=O)O [Compound 3, (2S)-2-({[(4-Bromo-2,6-difluorophenyl)amino]carbonyl}amino)-3-phenylpropanoic acid] | 6.25 | (1.0) |
| Cc1cc(Br)cc(C)c1NC(=O)N[C@@H](Cc1ccccc1)C(=O)O [Compound 4, (2S)-2-({[(4-Bromo-2,6-dimethylphenyl)amino]carbonyl}amino)-3-phenylpropanoic acid] | 5.62 | (0.82) |
| O=C(Nc1ccc(Cl)cc1Cl)N[C@@H](Cc1ccccc1)C(=O)O [Compound 5, (2S)-2-({[(2,4-Dichlorophenyl)amino]carbonyl}amino)-3-phenylpropanoic acid] | 5.94 | (1.0) |
| CC[C@H](C)[C@H](NC(=O)Nc1ccc(Br)cc1F)C(=O)O [Compound 7, (2S,3S)-2-({[(4-Bromo-2-fluorophenyl)amino]carbonyl}amino)-3-methylpentanoic acid] | 8.10 | (0.89) |
| O=C(Nc1ccc(Br)cc1F)N[C@H](C(=O)O)c1ccccc1 [Compound 8, (2S)-({[(4-Bromo-2-fluorophenyl)amino]carbonyl}amino)(phenyl)acetic acid] | 7.06 | (1.02) |
| O=C(Nc1ccc(Br)c2ccccc12)N[C@@H](Cc1ccccc1)C(=O)O [Compound 10, (2S)-2-({[(4-Bromo-1-naphthyl)amino]carbonyl}amino)-3-phenylpropanoic acid] | 5.29 | (0.53) |
| CC(C)C[C@H](NC(=O)Nc1ccc(SC(F)(F)F)cc1)C(=O)O [Compound 11, (2S)-4-Methyl-2-{[({4-[(trifluoromethyl)thio]phenyl}amino)carbonyl]amino}pentanoic acid] | 5.62 | (0.64) |
| CC(C)C[C@H](NC(=O)Nc1ccc(C(F)(F)F)cc1)C(=O)O [Compound 12, (2S)-4-Methyl-2-[({[4-(trifluoromethyl)phenyl]amino}carbonyl)amino]pentanoic acid] | 7.54 | (0.94) |
| CSCC[C@H](NC(=O)Nc1ccc(Br)cc1)C(=O)O [Compound 14, (2S)-2-({[(4-Bromophenyl)amino]carbonyl}amino)-4-(methylthio)butanoic acid] | 7.12 | (1.00) |
| CSc1ccc(NC(=O)N[C@@H](Cc2ccccc2)C(=O)O)cc1 [Compound 15, (2S)-2-[({[4-(Methylthio)phenyl]amino}carbonyl)amino]-3-phenylpropanoic acid] | 7.11 | (0.87) |
| O=C(Nc1ccc(Br)cc1)NC(Cc1ccccn1)C(=O)O (stereo not shown) [Compound 16, 2-({[(4-Bromophenyl)amino]carbonyl}amino)-3-pyridin-2-ylpropanoic acid] | 6.31 | (1.0) |
| O=C(Nc1ccc(Br)cc1F)NC(Cc1ccccn1)C(=O)O (stereo not shown) [Compound 17, 2-({[(4-Bromo-2-fluorophenyl)amino]carbonyl}amino)-3-pyridin-2-ylpropanoic acid] | 6.15 | (1.0) |
| O=C(Nc1ccc(Br)cc1F)NC(Cc1c[nH]c2ccccc12)C(=O)O (stereo not shown) [Compound 19, 2-({[(4-Bromo-2-fluorophenyl)amino]carbonyl}amino)-3-(1H-indol-3-yl)propanoic acid] | 6.92 | (1.04) |
| O=C(Nc1ncc2cc(Br)ccc2n1)NC(Cc1ccccc1)C(=O)O (stereo not shown) [Compound 20, 2-({[(6-Bromoquinazolin-2-yl)amino]carbonyl}amino)-3-phenylpropanoic acid] |  | (0.25) |
| CSCCC(NC(=O)Nc1ccc(Br)cc1)C(=O)O (stereo not shown) [Compound 21, 2-({[(4-Bromophenyl)amino]carbonyl}amino)-4-(methylthio)butanoic acid] | 7.03 | (0.94) |
| O=C(Nc1ccc(C(F)(F)F)cc1)NC(Cc1ccccc1)C(=O)O (stereo not shown) [Compound 22, 3-Phenyl-2-({[4-(trifluoromethyl)phenyl]carbamoyl}amino)propanoic acid] | 7.04 | (1.05) |
| CSc1ccc(NC(=O)NC(Cc2ccccc2)C(=O)O)cc1 (stereo not shown) [Compound 23, 2-[({[4-(Methylthio)phenyl]amino}carbonyl)amino]-3-phenylpropanoic acid] | 6.77 | (0.76) |
| CC(C)CC(C)(NC(=O)Nc1ccc(Br)cc1)C(=O)O (stereo not shown) [Compound 24, 2-({[(4-Bromophenyl)amino]carbonyl}amino)-2,4-dimethylpentanoic acid] | 7.80 | (0.95) |
| CCC(CC)(NC(=O)Nc1ccc(Br)cc1)C(=O)O [Compound 25, 2-({[(4-Bromophenyl)amino]carbonyl}amino)-2-ethylbutanoic acid] | 7.62 | (1.03) |
| NC(=O)[C@H](Cc1ccccc1)NC(=O)Nc1ccc(Br)cc1 [Compound 26, (2S)-2-({[(4-Bromophenyl)amino]carbonyl}amino)-3-phenylpropanamide] | 7.33 and 7.54 |  |
| CC(C)C[C@H](NC(=O)Nc1ccc(Br)cc1F)C(N)=O [Compound 27, (2S)-2-({[(4-Bromo-2-fluorophenyl)amino]carbonyl}amino)-4-methylpentanamide] | 6.92 | (1.13) |
| CC(C)C[C@H](NC(=O)Nc1ccc(Br)cc1)C(N)=O [Compound 28, (2S)-2-({[(4-Bromophenyl)amino]carbonyl}amino)-4-methylpentanamide] | 7.32 | (0.91) |
| CC[C@H](C)[C@H](NC(=O)Nc1ccc(Br)cc1F)C(N)=O [Compound 29, (2S,3S)-2-({[(4-Bromo-2-fluorophenyl)amino]carbonyl}amino)-3-methylpentanamide] | 6.62 | (0.78) |
| CCC[C@H](NC(=O)Nc1ccc(Br)cc1F)C(N)=O [Compound 30, (2S)-2-({[(4-Bromo-2-fluorophenyl)amino]carbonyl}amino)pentanamide] | 7.25 | (1.07) |
| CCC[C@H](NC(=O)Nc1ccc(Br)cc1)C(N)=O [Compound 31, (2S)-2-{[(4-Bromophenyl)carbamoyl]amino} pentanamide] | 6.96 | (0.97) |
